Where “and” joins values, the source holds several entries; their conditions need not be identical. Equal values may be shown once.
Assay: molar heat capacity at constant pressure; xn = mol fraction of the nth substance listed
Conditions: 100 kPa

[Si] [silicon] + [Li]
Conditions | molar heat capacity at constant pressure
453.6 K, Crystal of intercomponent compound 1, Small sample (50 mg) DSC, x2 = 0.81 | 25.67 J/K/mol
460 K, Crystal of intercomponent compound 1, relaxation calorimetry + DSC, x2 = 0.81 | 25.6 J/K/mol
460 K, Crystal of intercomponent compound 2, relaxation calorimetry + DSC, x2 = 0.804 | 26.23 J/K/mol
463.31 K, Crystal of intercomponent compound 2, Small sample (50 mg) DSC, x2 = 0.804 | 26.1 J/K/mol and 26.34 J/K/mol
463.5 K, Crystal of intercomponent compound 1, Small sample (50 mg) DSC, x2 = 0.81 | 25.45 J/K/mol
463.51 K, Crystal of intercomponent compound 1, Small sample (50 mg) DSC, x2 = 0.81 | 25.78 J/K/mol
473.22 K, Crystal of intercomponent compound 2, Small sample (50 mg) DSC, x2 = 0.804 | 26.29 J/K/mol and 26.62 J/K/mol
473.42 K, Crystal of intercomponent compound 1, Small sample (50 mg) DSC, x2 = 0.81 | 25.23 J/K/mol
473.43 K, Crystal of intercomponent compound 1, Small sample (50 mg) DSC, x2 = 0.81 | 26 J/K/mol
480 K, Crystal of intercomponent compound 1, relaxation calorimetry + DSC, x2 = 0.81 | 25.91 J/K/mol
480 K, Crystal of intercomponent compound 2, relaxation calorimetry + DSC, x2 = 0.804 | 26.66 J/K/mol
483.13 K, Crystal of intercomponent compound 2, Small sample (50 mg) DSC, x2 = 0.804 | 26.48 J/K/mol and 26.77 J/K/mol
483.33 K, Crystal of intercomponent compound 1, Small sample (50 mg) DSC, x2 = 0.81 | 25.45 J/K/mol
483.34 K, Crystal of intercomponent compound 1, Small sample (50 mg) DSC, x2 = 0.81 | 26.11 J/K/mol
493.04 K, Crystal of intercomponent compound 2, Small sample (50 mg) DSC, x2 = 0.804 | 26.73 J/K/mol and 26.89 J/K/mol
493.24 K, Crystal of intercomponent compound 1, Small sample (50 mg) DSC, x2 = 0.81 | 25.56 J/K/mol
493.26 K, Crystal of intercomponent compound 1, Small sample (50 mg) DSC, x2 = 0.81 | 26.32 J/K/mol
500 K, Crystal of intercomponent compound 1, relaxation calorimetry + DSC, x2 = 0.81 | 26.22 J/K/mol
500 K, Crystal of intercomponent compound 2, relaxation calorimetry + DSC, x2 = 0.804 | 27.09 J/K/mol
502.95 K, Crystal of intercomponent compound 2, Small sample (50 mg) DSC, x2 = 0.804 | 26.84 J/K/mol and 27.04 J/K/mol
503.15 K, Crystal of intercomponent compound 1, Small sample (50 mg) DSC, x2 = 0.81 | 25.78 J/K/mol
503.17 K, Crystal of intercomponent compound 1, Small sample (50 mg) DSC, x2 = 0.81 | 26.43 J/K/mol
512.86 K, Crystal of intercomponent compound 2, Small sample (50 mg) DSC, x2 = 0.804 | 27 J/K/mol and 27.24 J/K/mol
513.06 K, Crystal of intercomponent compound 1, Small sample (50 mg) DSC, x2 = 0.81 | 25.89 J/K/mol
513.08 K, Crystal of intercomponent compound 1, Small sample (50 mg) DSC, x2 = 0.81 | 26.54 J/K/mol
520 K, Crystal of intercomponent compound 1, relaxation calorimetry + DSC, x2 = 0.81 | 26.54 J/K/mol
520 K, Crystal of intercomponent compound 2, relaxation calorimetry + DSC, x2 = 0.804 | 27.52 J/K/mol
522.77 K, Crystal of intercomponent compound 2, Small sample (50 mg) DSC, x2 = 0.804 | 27.23 J/K/mol and 27.49 J/K/mol
522.97 K, Crystal of intercomponent compound 1, Small sample (50 mg) DSC, x2 = 0.81 | 26.11 J/K/mol
522.99 K, Crystal of intercomponent compound 1, Small sample (50 mg) DSC, x2 = 0.81 | 26.76 J/K/mol
532.68 K, Crystal of intercomponent compound 2, Small sample (50 mg) DSC, x2 = 0.804 | 27.46 J/K/mol and 27.67 J/K/mol
532.88 K, Crystal of intercomponent compound 1, Small sample (50 mg) DSC, x2 = 0.81 | 26.21 J/K/mol
532.9 K, Crystal of intercomponent compound 1, Small sample (50 mg) DSC, x2 = 0.81 | 26.98 J/K/mol
540 K, Crystal of intercomponent compound 1, relaxation calorimetry + DSC, x2 = 0.81 | 26.88 J/K/mol
540 K, Crystal of intercomponent compound 2, relaxation calorimetry + DSC, x2 = 0.804 | 27.95 J/K/mol
542.58 K, Crystal of intercomponent compound 2, Small sample (50 mg) DSC, x2 = 0.804 | 27.67 J/K/mol and 27.88 J/K/mol
542.79 K, Crystal of intercomponent compound 1, Small sample (50 mg) DSC, x2 = 0.81 | 26.54 J/K/mol
542.81 K, Crystal of intercomponent compound 1, Small sample (50 mg) DSC, x2 = 0.81 | 27.31 J/K/mol
552.5 K, Crystal of intercomponent compound 2, Small sample (50 mg) DSC, x2 = 0.804 | 27.8 J/K/mol and 28 J/K/mol
552.7 K, Crystal of intercomponent compound 1, Small sample (50 mg) DSC, x2 = 0.81 | 26.76 J/K/mol
552.72 K, Crystal of intercomponent compound 1, Small sample (50 mg) DSC, x2 = 0.81 | 27.53 J/K/mol
560 K, Crystal of intercomponent compound 1, relaxation calorimetry + DSC, x2 = 0.81 | 27.23 J/K/mol
560 K, Crystal of intercomponent compound 2, relaxation calorimetry + DSC, x2 = 0.804 | 28.38 J/K/mol
562.41 K, Crystal of intercomponent compound 2, Small sample (50 mg) DSC, x2 = 0.804 | 27.97 J/K/mol and 28.24 J/K/mol
562.61 K, Crystal of intercomponent compound 1, Small sample (50 mg) DSC, x2 = 0.81 | 27.09 J/K/mol
562.63 K, Crystal of intercomponent compound 1, Small sample (50 mg) DSC, x2 = 0.81 | 27.75 J/K/mol
572.33 K, Crystal of intercomponent compound 2, Small sample (50 mg) DSC, x2 = 0.804 | 28.21 J/K/mol and 28.37 J/K/mol
572.52 K, Crystal of intercomponent compound 1, Small sample (50 mg) DSC, x2 = 0.81 | 27.31 J/K/mol
572.54 K, Crystal of intercomponent compound 1, Small sample (50 mg) DSC, x2 = 0.81 | 27.97 J/K/mol
580 K, Crystal of intercomponent compound 1, relaxation calorimetry + DSC, x2 = 0.81 | 27.6 J/K/mol
580 K, Crystal of intercomponent compound 2, relaxation calorimetry + DSC, x2 = 0.804 | 28.81 J/K/mol
582.24 K, Crystal of intercomponent compound 2, Small sample (50 mg) DSC, x2 = 0.804 | 28.41 J/K/mol and 28.65 J/K/mol
582.43 K, Crystal of intercomponent compound 1, Small sample (50 mg) DSC, x2 = 0.81 | 27.53 J/K/mol
582.45 K, Crystal of intercomponent compound 1, Small sample (50 mg) DSC, x2 = 0.81 | 28.19 J/K/mol
592.15 K, Crystal of intercomponent compound 2, Small sample (50 mg) DSC, x2 = 0.804 | 28.65 J/K/mol and 28.85 J/K/mol
592.34 K, Crystal of intercomponent compound 1, Small sample (50 mg) DSC, x2 = 0.81 | 27.86 J/K/mol
592.36 K, Crystal of intercomponent compound 1, Small sample (50 mg) DSC, x2 = 0.81 | 28.41 J/K/mol
600 K, Crystal of intercomponent compound 1, relaxation calorimetry + DSC, x2 = 0.81 | 28 J/K/mol
600 K, Crystal of intercomponent compound 2, relaxation calorimetry + DSC, x2 = 0.804 | 29.25 J/K/mol
602.06 K, Crystal of intercomponent compound 2, Small sample (50 mg) DSC, x2 = 0.804 | 28.86 J/K/mol and 29.05 J/K/mol
602.26 K, Crystal of intercomponent compound 1, Small sample (50 mg) DSC, x2 = 0.81 | 28.19 J/K/mol
602.27 K, Crystal of intercomponent compound 1, Small sample (50 mg) DSC, x2 = 0.81 | 28.63 J/K/mol
611.97 K, Crystal of intercomponent compound 2, Small sample (50 mg) DSC, x2 = 0.804 | 29.02 J/K/mol and 29.19 J/K/mol
612.17 K, Crystal of intercomponent compound 1, Small sample (50 mg) DSC, x2 = 0.81 | 28.3 J/K/mol
612.18 K, Crystal of intercomponent compound 1, Small sample (50 mg) DSC, x2 = 0.81 | 28.74 J/K/mol
620 K, Crystal of intercomponent compound 1, relaxation calorimetry + DSC, x2 = 0.81 | 28.43 J/K/mol
620 K, Crystal of intercomponent compound 2, relaxation calorimetry + DSC, x2 = 0.804 | 29.68 J/K/mol
621.88 K, Crystal of intercomponent compound 2, Small sample (50 mg) DSC, x2 = 0.804 | 29.19 J/K/mol and 29.48 J/K/mol
622.08 K, Crystal of intercomponent compound 1, Small sample (50 mg) DSC, x2 = 0.81 | 28.41 J/K/mol
622.09 K, Crystal of intercomponent compound 1, Small sample (50 mg) DSC, x2 = 0.81 | 28.96 J/K/mol
631.8 K, Crystal of intercomponent compound 2, Small sample (50 mg) DSC, x2 = 0.804 | 29.46 J/K/mol and 29.65 J/K/mol
631.99 K, Crystal of intercomponent compound 1, Small sample (50 mg) DSC, x2 = 0.81 | 28.74 J/K/mol
632.01 K, Crystal of intercomponent compound 1, Small sample (50 mg) DSC, x2 = 0.81 | 29.07 J/K/mol
640 K, Crystal of intercomponent compound 1, relaxation calorimetry + DSC, x2 = 0.81 | 28.9 J/K/mol
640 K, Crystal of intercomponent compound 2, relaxation calorimetry + DSC, x2 = 0.804 | 30.11 J/K/mol
641.71 K, Crystal of intercomponent compound 2, Small sample (50 mg) DSC, x2 = 0.804 | 29.67 J/K/mol and 29.92 J/K/mol
641.89 K, Crystal of intercomponent compound 1, Small sample (50 mg) DSC, x2 = 0.81 | 28.96 J/K/mol
641.92 K, Crystal of intercomponent compound 1, Small sample (50 mg) DSC, x2 = 0.81 | 29.29 J/K/mol
651.63 K, Crystal of intercomponent compound 2, Small sample (50 mg) DSC, x2 = 0.804 | 29.86 J/K/mol and 30.21 J/K/mol
651.81 K, Crystal of intercomponent compound 1, Small sample (50 mg) DSC, x2 = 0.81 | 29.07 J/K/mol
651.84 K, Crystal of intercomponent compound 1, Small sample (50 mg) DSC, x2 = 0.81 | 29.51 J/K/mol

From the NIST ThermoML archive (doi:10.1016/j.jct.2015.01.004)
